Key:
Format in all cases: cell-based
CAL-51 = test: MTS anti-proliferative assay, CAL-51; conditions: Homo sapiens, 168 h, CAL-51, TNBC, basal, treatment for 7 days
Method: (§1) The anti-proliferative effects and IC50 values of the compounds in the BC cell line panel were determined by MTS assay.
(§2) The cells, except Sk-Br-3, AU565 and BT-474 were maintained in a mixture of Dulbecco's modified Eagle's medium and Ham's F12 medium (1:1) (DMEM/F12) without phenol red supplemented with 5% fetal bovine serum (FBS) and 1× antibiotic-antimycotic (100 U/mL penicillin G sodium, 100 μg/mL streptomycin sulfate and 0.25 μg/mL amphotericin B) and were plated separately in flasks in a humidified incubator (5% CO2: 95% air, 37° C.). The media used for Sk-Br-3, AU565 and BT-474 cell lines was described in (1) Brueggemeier et al., J. Steroid Biochem. Mol. Biol., 2005; 95:129-136; and (2) Diaz-Cruz et al., J. Clin. Endocrinol. Metab., 2005; 90:2563-2570. The media were changed every 2-days. When the cells grew to about 80% confluence, cells were washed twice with calcium- and magnesium-free phosphate-buffered saline (PBS, pH 7.4), and then trypsinized with 0.05% trypsin-5.3 mm EDTA. The trypsinization was stopped by addition of culture medium with 5% FBS. After centrifugation, the dissociated cells were resuspended in the same medium and subcultured into 75-cm^2 culture flasks at a ratio of 1:5 flasks.
(§3) The BC cells were seeded at the density of 1,000 cells per well (100 μL) into 96 well plate in DMEM/F-12 (1:1), supplemented with 5% (v/v) FCS and incubated overnight at 37° C. Test compounds are solubilized in dimethyl sulfoxide (DMSO), diluted in cell culture medium to a range of final assay concentrations of 1 nM to 10 μM, added to cells and incubated for 7 days at 37° C. The medium including the test compound are refreshed at days 3 and 5. The MTS assay are carried out by using the CellTiter 96® AQueous One Solution Cell Proliferation Assay kit following the manufacturer's instruction.

HCC1937 = test: MTS anti-proliferative assay, HCC1937; conditions: Homo sapiens, 168 h, HCC1937, TNBC, basal, treatment for 7 days
Method: as §1, §2, §3

MDA-MB-468 = test: MTS anti-proliferative assay, MDA-MB-468; conditions: Homo sapiens, 168 h, MDA-MB-468, TNBC, basal B, treatment for 7 days
Method: as §1, §2, §3

CAMA-1 = test: MTS anti-proliferative assay, CAMA-1; conditions: Homo sapiens, 168 h, CAMA-1, luminal, treatment for 7 days
Method: as §1, §2, §3

BT-20 = test: MTS anti-proliferative assay, BT-20; conditions: Homo sapiens, 168 h, BT-20, TNBC, basal A, treatment for 7 days
Method: as §1, §2, §3

Hs578T = test: MTS anti-proliferative assay, Hs578T; conditions: Homo sapiens, Hs-578T, 168 h, TNBC, basal B, treatment for 7 days
Method: as §1, §2, §3

MDA-MB-231 = test: MTS anti-proliferative assay, MDA-MB-231; conditions: Homo sapiens, 168 h, MDA-MB-231, TNBC, basal B, treatment for 7 days
Method: as §1, §2, §3

MCF-7 = test: MTS anti-proliferative assay, MCF-7; conditions: Homo sapiens, MCF7, 168 h, MCF-7, luminal A, treatment for 7 days
Method: as §1, §2, §3

AU565 = test: MTS anti-proliferative assay, AU565; conditions: Homo sapiens, 168 h, AU565, luminal, treatment for 7 days
Method: as §1, §2, §3

T47D = test: MTS anti-proliferative assay, T47D; conditions: Homo sapiens, 168 h, luminal, treatment for 7 days
Method: as §1, §2, §3

BT-474 = test: MTS anti-proliferative assay, BT-474; conditions: Homo sapiens, 168 h, BT-474, luminal B, treatment for 7 days
Method: as §1, §2, §3

[1] = tested on: panel of breast cancer cell lines; test: Anti-proliferative assays, panel of BC cell lines (overall statements); conditions: for potency as compared to Mps1-IN-1: in some or all of the cell based assays in the panel
Method: This example describes the development of novel small molecule Mps1/TTK inhibitors as targeted therapies for TNBC and other aggressive BC using drug discovery technologies. Using computational modeling, medicinal chemistry, biochemistry and cell culture assays, the inventors have identified novel small molecules as potential Mps1/TTK inhibitors. The compounds were evaluated in anti-proliferative assays of a panel of 15 BC cell lines and further examined for their ability to inhibit a variety of Mps1-dependent biological functions.
as §1, §2, §3

[2] = tested on: normal breast epithelial cells; test: Primary cultures of normal breast epithelial cells; conditions: up to 20 μM
Method: No notable cytotoxicity was observed after 24 hours of treatment at concentrations as high as 10 μM.

Cal-51 cells = test: Spindle checkpoint assay, Cal-51; conditions: for abrogating the spindle checkpoint: Cal-51, at 1 μM
Method: For spindle checkpoint assays, S-phase arrested cells treated with candidate compounds were released into medium containing the spindle poison nocodazole. Because the spindle checkpoint prevents the metaphase to anaphase transition in the presence of spindle damage, compounds that block the spindle checkpoint will lead to a decreased number of mitotic cells in the presence of nocodazole. Briefly, cells were arrested in S-phase with a 24 hour treatment with 2 mM thymidine. Three hours after removing thymidine to release cells from S-phase arrest, nocodazole was added at 200 ng/mL. After 12 hours in the presence of nocodazole, cells were fixed and stained with mouse anti-cyclin B and Hoechst, and the percentage of cyclin B positive cells with condensed chromosomes was determined in triplicate samples.

Compound | IC50 (CAL-51) | IC50 (HCC1937) | IC50 (MDA-MB-468) | IC50 (CAMA-1) | IC50 (BT-20) | IC50 (Hs578T) | IC50 (MDA-MB-231) | IC50 (MCF-7) | IC50 (AU565) | IC50 (T47D) | IC50 (BT-474) | potency as compared to Mps1-IN-1 [1] | anti-proliferative effect, selectivity toward TNBC cells ([1]; preliminary studies of the initial series) | inhibition of normal breast epithelial cells [2] | abrogating the spindle checkpoint (Cal-51 cells) | ability of cells to arrest in response to nocodazole (Cal-51 cells; Cal-51, nocodazole 200 ng/mL, 12 hours)
COc1cc(N2CCC(O)CC2)ccc1Nc1nc(Nc2ccccc2S(=O)(=O)C(C)C)c2cc[nH]c2n1 [Compound 1, 1-(4-((4-((2-(isopropylsulfonyl)phenyl)amino)-7H-pyrrolo[2,3-d]pyrimidin-2-yl)amino)-3-methoxyphenyl)piperidin-4-ol] | 230 nM | 730 nM | 190 nM | 360 nM | 350 nM | > 10000 nM | > 10000 nM | 440 nM | > 10000 nM | > 10000 nM | > 10000 nM | significantly more potent | moderate selectivity | no inhibition or incomplete dose-response curves | more effective than IN-1, AZ3146, or compound 5 | dose-dependent reduction
COc1cc(N2CCOCC2)ccc1Nc1nc(NC2CCCCC2)c2cc[nH]c2n1 [Compound 13, N4-cyclohexyl-N2-(2-methoxy-4-morpholinophenyl)-7H-pyrrolo[2,3-d]pyrimidine-2,4-diamine] | 450 nM | 1090 nM | 570 nM | 1100 nM | 570 nM | > 10000 nM | > 10000 nM | > 10000 nM | 900 nM | > 10000 nM | 50 nM | significantly more potent | – | no inhibition or incomplete dose-response curves | most effective | –
